# Article PMC8224398, “SARS-CoV-2 mutations in MHC-I-restricted epitopes evade CD8^+ T cell responses” (Science Immunology, 2021)
# Test system: CD8+ T cells in PBMCs of COVID-19 patients
# Assay type: cell-based, human
sequence,measurement,value
YFQPRTFLL [YLQ mutant],wild type tetramer-positive CD8+ T cells after expansion with mutant versus wild type peptide (in words),reduced numbers of YLQ tetramer positive cells
